# Experimental data from EP3228306A1, “COMPLEX COMPOUND COMPRISING OBETICHOLIC ACID AND CYCLODEXTRIN AND PHARMACEUTICAL FORMULATION COMPRISING THE COMPLEX COMPOUND” (ratiopharm GmbH, priority 2016, dated 2017).
# Read-outs that look alike come from different tables or passages of the source.
# What was measured:
# [1] = Solubility of OCA:CD complexes in physiologically relevant media; assay type: physicochemical; conditions: thermodynamic from solid, 37°C, complex corresponding to 20 mg obeticholic acid in 2 mL
# Method: Obeticholic acid (OCA) or OCA: Cyclodextrin (CD) complex was weighed into a glass vial, followed by addition of 1 or 2 ml solvent (water, 0.01 N HCl, phosphate buffer pH 6.8 and FaSSIF). A stirring bar was added, the vial was fixed in a block heater at 37°C and the suspension was stirred with approx. 250 rpm. After 15 min and 1 h, samples were withdrawn, filtered through a 0.2 µm disposable filter, 100 µl of the clear filtrate were diluted with 900 µl acetonitrile (ACN):Water (1:1) and 1 µl thereof were analyzed by UHPLC/UV.
# Solubilities of OCA:CD complexes were determined by stirring an amount of complex which corresponds to 20 mg of obeticholic acid (calculated from the known drug loads) in 2 mL of solvent for 15 min and 60 min at 37°C according to the method described above under "Analytical Methods". Solubility values are given in mg/ml.
# [2] = cited from earlier work
# [3] = Solubility of OCA in concentrated aqueous CD solutions (Experiment 2); assay type: physicochemical; conditions: stirred 60 h
# Method: Variable amounts of solid OCA (left column of the Tables given below) were stirred in aqueous CD-solutions (14% (w/w) α-CD, 1.8% β-CD, 20% γ-CD, 20% HP-β-CD, 30% SB-β-CD, 30% RM-β-CD, and 40% HP-γ-CD) for 60 h. Aliquots were filtered through 0.2 µm disposable PTFE filters and the filtrates were analyzed by HPLC/UV. The concentration of OCA was determined based on a calibration curve which was established by twofold analysis of five calibration standards with 0.01 mg/mL to 1.0 mg/mL OCA.
# [4] = reported in WO 2013/192097; measured in 0.1 N HCl after equilibration under stirring for one week at 25°C; cited from earlier work
structure (smiles),measurement,setting,value
"CC[C@H]1[C@@H](O)[C@@H]2[C@H](CC[C@]3(C)[C@@H]([C@H](C)CCC(=O)O)CC[C@@H]23)[C@@]2(C)CC[C@@H](O)C[C@@H]12 [OCA, 6α-ethyl-chenodeoxycholic acid]",solubility at 15 min,"[1]; 0.01 N HCl, pH 2.2, simulated gastric fluid, read-out: Solubility, 0.01 N HCl (pH 2.2), 15 min",< 10 µg/mL
same,solubility at 60 min,"[1]; 0.01 N HCl, pH 2.2, simulated gastric fluid, read-out: Solubility, 0.01 N HCl (pH 2.2), 60 min",< 10 µg/mL
same,solubility at 15 min,"[1]; 50 mM KH2PO4 phosphate buffer, pH 6.5, aqueous buffer, read-out: Solubility, 50 mM KH2PO4 (pH 6.5), 15 min",110 µg/mL
same,solubility at 60 min,"[1]; 50 mM KH2PO4 phosphate buffer, pH 6.5, aqueous buffer, read-out: Solubility, 50 mM KH2PO4 (pH 6.5), 60 min",110 µg/mL
same,solubility at 15 min,"[1]; FaSSIF, pH 6.5, fassif, Fasted State Simulated Intestinal Fluid, read-out: Solubility, FassiF* (pH 6.5), 15 min",520 µg/mL
same,solubility at 60 min,"[1]; FaSSIF, pH 6.5, fassif, Fasted State Simulated Intestinal Fluid, read-out: Solubility, FassiF* (pH 6.5), 60 min",420 µg/mL
same,solubility at 15 min,"[1]; water, pH 7, water, read-out: Solubility, Water (pH 7), 15 min",< 10 µg/mL
same,solubility at 60 min,"[1]; water, pH 7, water, read-out: Solubility, Water (pH 7), 60 min",< 10 µg/mL
same,thermodynamic pKa,[2],about 5
same,dissolved OCA,"[3]; HP-β-CD (20%) aqueous solution, OCA 10 mg/mL weighed",9.425 mg/mL
same,dissolved OCA,"[3]; HP-β-CD (20%) aqueous solution, OCA 20 mg/mL weighed",18.716 mg/mL
same,dissolved OCA,"[3]; HP-β-CD (20%) aqueous solution, OCA 40 mg/mL weighed",37.499 mg/mL
same,dissolved OCA,"[3]; HP-β-CD (20%) aqueous solution, OCA 50 mg/mL weighed",45.473 mg/mL
same,dissolved OCA,"[3]; HP-β-CD (20%) aqueous solution, OCA 60 mg/mL weighed",45.785 mg/mL
same,dissolved OCA,"[3]; HP-γ-CD (40%) aqueous solution, OCA 10 mg/mL weighed",8.704 mg/mL
same,dissolved OCA,"[3]; HP-γ-CD (40%) aqueous solution, OCA 20 mg/mL weighed",18.095 mg/mL
same,dissolved OCA,"[3]; HP-γ-CD (40%) aqueous solution, OCA 40 mg/mL weighed",35.632 mg/mL
same,dissolved OCA,"[3]; HP-γ-CD (40%) aqueous solution, OCA 80 mg/mL weighed",62.989 mg/mL
same,dissolved OCA,"[3]; RM-β-CD (30%) aqueous solution, OCA 20 mg/mL weighed",17.374 mg/mL
same,dissolved OCA,"[3]; RM-β-CD (30%) aqueous solution, OCA 40 mg/mL weighed",37.316 mg/mL
same,dissolved OCA,"[3]; RM-β-CD (30%) aqueous solution, OCA 80 mg/mL weighed",63.629 mg/mL
same,dissolved OCA,"[3]; RM-β-CD (30%) aqueous solution, OCA 160 mg/mL weighed",78.693 mg/mL
same,dissolved OCA,"[3]; SB-β-CD (30%) aqueous solution, OCA 20 mg/mL weighed",17.545 mg/mL
same,dissolved OCA,"[3]; SB-β-CD (30%) aqueous solution, OCA 40 mg/mL weighed",38.735 mg/mL
same,dissolved OCA,"[3]; SB-β-CD (30%) aqueous solution, OCA 80 mg/mL weighed",60.767 mg/mL
same,dissolved OCA,"[3]; SB-β-CD (30%) aqueous solution, OCA 160 mg/mL weighed",57.080 mg/mL
same,dissolved OCA,"[3]; α-CD (14%) aqueous solution, OCA 5 mg/mL weighed",4.614 mg/mL
same,dissolved OCA,"[3]; α-CD (14%) aqueous solution, OCA 10 mg/mL weighed",6.154 mg/mL
same,dissolved OCA,"[3]; α-CD (14%) aqueous solution, OCA 20 mg/mL weighed",6.937 mg/mL
same,dissolved OCA,"[3]; α-CD (14%) aqueous solution, OCA 40 mg/mL weighed",7.141 mg/mL
same,dissolved OCA,"[3]; β-CD (1.8%) aqueous solution, OCA 2.5 mg/mL weighed",2.229 mg/mL
same,dissolved OCA,"[3]; β-CD (1.8%) aqueous solution, OCA 5 mg/mL weighed",4.312 mg/mL
same,dissolved OCA,"[3]; β-CD (1.8%) aqueous solution, OCA 10 mg/mL weighed",4.830 mg/mL
same,dissolved OCA,"[3]; β-CD (1.8%) aqueous solution, OCA 20 mg/mL weighed",4.880 mg/mL
same,dissolved OCA,"[3]; γ-CD (20%) aqueous solution, OCA 5 mg/mL weighed",0.069 mg/mL
same,dissolved OCA,"[3]; γ-CD (20%) aqueous solution, OCA 10 mg/mL weighed",0.069 mg/mL
same,dissolved OCA,"[3]; γ-CD (20%) aqueous solution, OCA 20 mg/mL weighed",0.066 mg/mL
same,dissolved OCA,"[3]; γ-CD (20%) aqueous solution, OCA 40 mg/mL weighed",0.055 mg/mL
same,water solubility,[4],7.5 µg/mL
